Source: the Kinase Knowledgebase extract (Sharma et al. 2016)

Columns and labels:
[1] = target: MAPK14 (human) (UniProt Q16539); experiment: Inhibition of MAPK14 Kinase Activity by PHAS-I Assay; conditions: for inhibition: concentration not given here
[2] = target: MAPK14 (human) (UniProt Q16539); experiment: Inhibition of LPS Stimulated TNF Production by U937 Cells; conditions: for inhibition: concentration not given here

MAPK14 (human), sequence (Q16539 whole entry, looked up): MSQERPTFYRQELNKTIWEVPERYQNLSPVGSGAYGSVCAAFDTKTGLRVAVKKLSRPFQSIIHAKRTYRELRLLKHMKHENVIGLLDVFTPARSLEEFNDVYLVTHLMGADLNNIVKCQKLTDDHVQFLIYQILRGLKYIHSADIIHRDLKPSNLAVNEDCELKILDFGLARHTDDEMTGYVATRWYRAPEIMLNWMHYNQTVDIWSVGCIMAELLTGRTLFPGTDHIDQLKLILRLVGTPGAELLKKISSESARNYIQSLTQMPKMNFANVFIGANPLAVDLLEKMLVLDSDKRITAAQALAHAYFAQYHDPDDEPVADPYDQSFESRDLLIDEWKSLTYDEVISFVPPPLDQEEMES

inhibition [1] [%] | inhibition [2] [%] | IC50 [1] [nM] | IC50 [2] [nM] | IC100 [2] [µM] | Compound
66 | 48 | – | – | – | O=C(NCCc1[nH]nc(-c2ccc(F)cc2)c1-c1ccncc1)Nc1ccccc1OC(F)(F)F
89 | 57 | – | – | – | CS(=O)(=O)NCCc1[nH]nc(-c2ccc(F)cc2)c1-c1ccncc1
– | 86 | 24 | – | – | COc1ccc(Br)cc1S(=O)(=O)N[C@H](C)c1[nH]nc(-c2ccc(F)cc2)c1-c1ccncc1
– | 46 | 660 | – | – | CNC(=O)CC[C@H](NC(C)=O)c1[nH]nc(-c2ccc(F)cc2)c1-c1ccncc1
96 | 54 | – | – | – | O=C(NCc1[nH]nc(-c2ccc(F)cc2)c1-c1ccncc1)C(F)(F)C(F)(F)C(F)(F)F
– | 64 | < 100 | – | – | COc1ccc(Cl)cc1S(=O)(=O)NCCCc1[nH]nc(-c2ccc(F)cc2)c1-c1ccncc1
82 | 35 | – | – | – | CCCS(=O)(=O)NCCc1[nH]nc(-c2ccc(F)cc2)c1-c1ccncc1
42 | 24 | – | – | – | Cc1c(-c2ccncc2)c(-c2ccc(F)cc2)nn1CC(=O)N1CCCCC1C[C@@H]1CCCN1C (stereo partly specified)
58 | 18 | – | – | – | Cc1ccc(S(=O)(=O)NCCc2[nH]nc(-c3ccc(F)cc3)c2-c2ccncc2)cc1
73 | 25 | – | – | – | Cc1c(-c2ccncc2)c(-c2ccc(F)cc2)nn1CC(=O)NC1CCc2ccccc21 (stereo unspecified)
– | – | < 100 | 440 | – | COc1ccc(NC(=O)N2CCC(c3[nH]nc(-c4ccc(F)cc4)c3-c3ccncc3)CC2)c(OC)c1
57 | 73 | – | – | – | CC(=O)O[C@@H](C)C(=O)NCCc1[nH]nc(-c2ccc(F)cc2)c1-c1ccncc1
78 | 62 | – | – | – | O=S(=O)(NCCCc1[nH]nc(-c2ccc(F)cc2)c1-c1ccncc1)c1ccc(F)cc1
79 | 55 | – | – | – | CCOC(=O)NCCc1[nH]nc(-c2ccc(F)cc2)c1-c1ccncc1
53 | 40 | – | – | – | N#Cc1ccc(C(=O)NCc2[nH]nc(-c3ccc(F)cc3)c2-c2ccncc2)cc1
85 | – | – | – | 0.36 | O=C(NCCCc1[nH]nc(-c2ccc(F)cc2)c1-c1ccncc1)[C@@H]1CCCN1
74 | – | – | 680 | – | CC(=O)OCC(=O)NCCCc1[nH]nc(-c2ccc(F)cc2)c1-c1ccncc1
– | 73 | 59 | – | – | CC(=O)Nc1ccc(S(=O)(=O)N[C@@H](C)c2[nH]nc(-c3ccc(F)cc3)c2-c2ccncc2)cc1
50 | 5 | – | – | – | CC(C)c1ccc(NC(=O)NCCc2[nH]nc(-c3ccc(F)cc3)c2-c2ccncc2)cc1
– | 82 | 470 | – | – | Cc1cccc(S(=O)(=O)NCc2[nH]nc(-c3ccc(F)cc3)c2-c2ccncc2)c1
– | 24 | 660 | – | – | C[C@@H](NC(=O)c1ccc(F)cc1)c1[nH]nc(-c2ccc(F)cc2)c1-c1ccncc1
62 | 57 | – | – | – | CC(=O)OCC(=O)NCCc1[nH]nc(-c2ccc(F)cc2)c1-c1ccncc1
64 | 38 | – | – | – | Cc1c(-c2ccncc2)c(-c2ccc(F)cc2)nn1CC(=O)N[C@@H](C)C1CCCCC1
– | 34 | 540 | – | – | O=C(N[C@H](Cc1ccccc1)c1[nH]nc(-c2ccc(F)cc2)c1-c1ccncc1)c1ccccc1I
68 | 31 | – | – | – | O=C(NCCc1[nH]nc(-c2ccc(F)cc2)c1-c1ccncc1)Nc1cccc(Cl)c1Cl

inhibition [1] [%] | inhibition [2] [%] | IC50 [1] [nM] | IC50 [2] [nM] | IC100 [2] [µM] | Compound
68 | 2 | – | – | – | CCN(Cc1ccncc1)C(=O)Cn1nc(-c2ccc(F)cc2)c(-c2ccncc2)c1C
77 | 45 | – | – | – | O=C(NCCc1[nH]nc(-c2ccc(F)cc2)c1-c1ccncc1)c1ccno1
79 | 45 | – | – | – | O=C(NCCc1[nH]nc(-c2ccc(F)cc2)c1-c1ccncc1)C1CCCC1
62 | – | – | > 10000 | – | Cc1c(-c2ccncc2)c(-c2ccc(F)cc2)nn1CC(=O)N(C)CCN(C)C
42 | – | – | 3630 | – | O=S(=O)(NCc1[nH]nc(-c2ccc(F)cc2)c1-c1ccncc1)c1ccc(OC(F)(F)F)cc1
40 | 31 | – | – | – | Cc1c(-c2ccncc2)c(-c2ccc(F)cc2)nn1CC(=O)N(C)CC(=O)N(C)C
96 | 52 | – | – | – | O=C(NCc1[nH]nc(-c2ccc(F)cc2)c1-c1ccncc1)[C@@H]1CCCN1C(=O)C(F)(F)F
68 | 41 | – | – | – | O=C(Cc1cccs1)NCCc1[nH]nc(-c2ccc(F)cc2)c1-c1ccncc1
70 | 17 | – | – | – | COc1ccc(S(=O)(=O)NCCc2[nH]nc(-c3ccc(F)cc3)c2-c2ccncc2)cc1OC
63 | 35 | – | – | – | O=C(NCCc1[nH]nc(-c2ccc(F)cc2)c1-c1ccncc1)Nc1ccccc1-c1ccccc1
79 | 19 | – | – | – | Cc1c(-c2ccncc2)c(-c2ccc(F)cc2)nn1CC(=O)[C@H]1CCCN1C(=O)OCc1ccccc1
– | 81 | 1780 | – | – | COc1ccc(Br)cc1S(=O)(=O)N[C@@H](C)c1[nH]nc(-c2ccc(F)cc2)c1-c1ccncc1
54 | 5 | – | – | – | CCOC(=O)CCOC(=O)NCc1[nH]nc(-c2ccc(F)cc2)c1-c1ccncc1
– | 40 | 130 | – | – | CCN(CC)C(=O)NCc1[nH]nc(-c2ccc(F)cc2)c1-c1ccncc1
85 | 7 | – | – | – | O=S(=O)(NCCc1[nH]nc(-c2ccc(F)cc2)c1-c1ccncc1)c1ccc(F)cc1
51 | 29 | – | – | – | O=C(NCCc1[nH]nc(-c2ccc(F)cc2)c1-c1ccncc1)Nc1ccc(Br)cc1
– | 59 | < 100 | – | – | CC1(C)[C@@H]2CC[C@]1(CS(=O)(=O)NCCCc1[nH]nc(-c3ccc(F)cc3)c1-c1ccncc1)C(=O)C2
55 | 42 | – | – | – | COc1ccc(CC(=O)NCCc2[nH]nc(-c3ccc(F)cc3)c2-c2ccncc2)cc1
– | – | 91 | > 1000 | – | CN1CCN(CCCNC(=O)NCCCc2[nH]nc(-c3ccc(F)cc3)c2-c2ccncc2)CC1
90 | 17 | – | – | – | CCOC(=O)c1ccc(NC(=O)NCCc2[nH]nc(-c3ccc(F)cc3)c2-c2ccncc2)cc1
89 | 7 | – | – | – | Cc1cccc(OC(=O)c2ccc(NC(=O)Cn3nc(-c4ccc(F)cc4)c(-c4ccncc4)c3C)cc2)c1
55 | – | – | > 10000 | – | Cc1c(-c2ccncc2)c(-c2ccc(F)cc2)nn1CC(=O)N(CC(C)C)CC(C)C
75 | – | – | > 10000 | – | COc1ccc(CN(CCc2ccccc2)C(=O)Cn2nc(-c3ccc(F)cc3)c(-c3ccncc3)c2C)cc1
– | 20 | 55 | – | – | O=C(NCCCc1[nH]nc(-c2ccc(F)cc2)c1-c1ccncc1)NCCN1CCOCC1
55 | 10 | – | – | – | CCN(CC)CCN(Cc1ccc(Cl)cc1)C(=O)Cn1nc(-c2ccc(F)cc2)c(-c2ccncc2)c1C

inhibition [1] [%] | inhibition [2] [%] | IC50 [1] [nM] | IC50 [2] [nM] | IC100 [2] [µM] | Compound
66 | – | – | 990 | – | O=C(NCCCc1[nH]nc(-c2ccc(F)cc2)c1-c1ccncc1)C1CCC1
54 | 27 | – | – | – | O=C(NCCc1[nH]nc(-c2ccc(F)cc2)c1-c1ccncc1)c1ccccc1C(F)(F)F
– | 69 | 250 | – | – | C[C@H](NS(=O)(=O)c1ccccc1C#N)c1[nH]nc(-c2ccc(F)cc2)c1-c1ccncc1
63 | 31 | – | – | – | COc1cccc(CC(=O)NCCc2[nH]nc(-c3ccc(F)cc3)c2-c2ccncc2)c1
54 | 23 | – | – | – | COc1cccc(C(=O)NCCc2[nH]nc(-c3ccc(F)cc3)c2-c2ccncc2)c1
90 | 28 | – | – | – | Cc1c(-c2ccncc2)c(-c2ccc(F)cc2)nn1CC(=O)Nc1ccc(S(=O)(=O)C(F)F)cc1
79 | 23 | – | – | – | O=C(NCCc1[nH]nc(-c2ccc(F)cc2)c1-c1ccncc1)Nc1ccc(Cl)c(Cl)c1
77 | 1 | – | – | – | CCOC(=O)[C@H](Cc1ccccc1)NC(=O)Cn1nc(-c2ccc(F)cc2)c(-c2ccncc2)c1C
97 | – | – | 10000 | – | C=CCOC(=O)NCc1[nH]nc(-c2ccc(F)cc2)c1-c1ccncc1
27 | 35 | – | – | – | O=C(NCc1[nH]nc(-c2ccc(F)cc2)c1-c1ccncc1)Nc1ccc(I)cc1
39 | 10 | – | – | – | COc1ccc2[nH]c3c(c2c1)CCN(C(=O)Cn1nc(-c2ccc(F)cc2)c(-c2ccncc2)c1C)C3
4 | 14 | – | – | – | COc1cc(OC)c(NC(=O)NCc2[nH]nc(-c3ccc(F)cc3)c2-c2ccncc2)cc1O
– | 18 | 530 | – | – | CN(C(=O)NCc1[nH]nc(-c2ccc(F)cc2)c1-c1ccncc1)c1ccccc1
60 | 39 | – | – | – | COC(=O)[C@@H]1CCCN1C(=O)Cn1nc(-c2ccc(F)cc2)c(-c2ccncc2)c1C
0 | 26 | – | – | – | O=C(NCCc1[nH]nc(-c2ccc(F)cc2)c1-c1ccncc1)c1cccc(Br)c1
79 | – | – | 590 | – | C=CCOC(=O)NCCCc1[nH]nc(-c2ccc(F)cc2)c1-c1ccncc1
50 | 6 | – | – | – | C=CCN(C(=O)Cn1nc(-c2ccc(F)cc2)c(-c2ccncc2)c1C)C1CCCCC1
44 | 21 | – | – | – | O=C(NCCc1[nH]nc(-c2ccc(F)cc2)c1-c1ccncc1)Nc1cc(Cl)cc(Cl)c1
86 | 34 | – | – | – | O=C(NCCc1[nH]nc(-c2ccc(F)cc2)c1-c1ccncc1)N1CCOCC1
65 | 62 | – | – | – | O=C(NCCCc1[nH]nc(-c2ccc(F)cc2)c1-c1ccncc1)c1ccccc1C(F)(F)F
61 | 23 | – | – | – | COc1ccc(S(=O)(=O)NCCc2[nH]nc(-c3ccc(F)cc3)c2-c2ccncc2)cc1
48 | 35 | – | – | – | CC[C@H](NC(=O)Cn1nc(-c2ccc(F)cc2)c(-c2ccncc2)c1C)c1ccccc1
– | 60 | 160 | – | – | C[C@H](NS(=O)(=O)C[C@@]12CC[C@H](CC1=O)C2(C)C)c1[nH]nc(-c2ccc(F)cc2)c1-c1ccncc1
